Data published in patent US10961215B2, “N-aryl and N-heteroaryl piperidine derivatives as liver X receptor beta agonists, compositions, and their use” (Merck Sharp & Dohme Corp., priority 2016, dated 2021).
pEC50: −log10 of the molar value.

Experiments:
[1] = biological target: T1, GST tagged LXRalpha LBD (ligand binding domain) (Homo sapiens, UniProt Q13133); test: LanthaScreen TR-FRET Liver X Receptor Coactivator Assay, LXR alpha-LBD (co-activator recruitment; IP and % Emax relative to T0901317); format: biochemical; conditions: for LXR alpha IP (nM) / pEC50: Inflection Point of co-activator recruitment, LXR alpha-LBD, TR-FRET; for Emax: efficacy at max dose in relation to reference T0901317, LXR alpha-LBD, read-out: LXR alpha actiivty at max dose (%)
T1 construct: purchased Invitrogen pv4655
T1 sequence (Q13133 209-447 limits assumed): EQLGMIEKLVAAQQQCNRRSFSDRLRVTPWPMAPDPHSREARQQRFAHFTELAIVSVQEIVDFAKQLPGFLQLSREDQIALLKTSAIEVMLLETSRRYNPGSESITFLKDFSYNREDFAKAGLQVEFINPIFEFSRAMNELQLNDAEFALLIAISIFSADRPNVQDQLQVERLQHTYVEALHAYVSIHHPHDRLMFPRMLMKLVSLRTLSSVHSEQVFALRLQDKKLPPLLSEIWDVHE
Procedure: (§1) Potency (Inflection Point, IP) and efficacy (Emax) are evaluated via compound-induced co-activator recruitment to glutathione-S-transferase (GST) tagged LXRbeta and LXRalpha LBD (ligand binding domain) proteins in relation to reference dual agonist compound T0901317 (N-(2,2,2-Trifluoroethyl)-N-[4-[2,2,2-trifluoro-1-hydroxy-1-(trifluoromethyl)ethyl]phenyl]benzenesulfonamide) using the LanthaScreen™ TR-FRET Liver X Receptor Coactivator Assays according to manufacturer's instructions (Invitrogen catalog number pv4658.pps and pv4655). While running the LanthaScreen™ TR-FRET Liver X Receptor Coactivator Assay, LXR alpha-LBD or LXR beta-LBD was added to ligand test compounds followed by addition of a mixture of a fluorescein-labelled coactivator peptide and terbium-conjugated anti-GST antibody. After an incubation period at room temperature, TR-FRET (time-resolved fluorescence resonance energy transfer) was measured using a filter-based instrument capable of TR-FRET, e.g. PerkinElmer Envision.

[2] = biological target: T2, GST tagged LXRbeta LBD (ligand binding domain) (Homo sapiens, UniProt P55055); test: LanthaScreen TR-FRET Liver X Receptor Coactivator Assay, LXR beta-LBD (co-activator recruitment; IP and % Emax relative to T0901317); format: biochemical; conditions: for pEC50: Inflection Point of co-activator recruitment, LXR beta-LBD, TR-FRET; for Emax: efficacy at max dose in relation to reference T0901317, LXR beta-LBD, read-out: LXR beta actiivty at max dose (%)
T2 construct: purchased Invitrogen pv4658.pps
T2 sequence (P55055 222-460 limits assumed): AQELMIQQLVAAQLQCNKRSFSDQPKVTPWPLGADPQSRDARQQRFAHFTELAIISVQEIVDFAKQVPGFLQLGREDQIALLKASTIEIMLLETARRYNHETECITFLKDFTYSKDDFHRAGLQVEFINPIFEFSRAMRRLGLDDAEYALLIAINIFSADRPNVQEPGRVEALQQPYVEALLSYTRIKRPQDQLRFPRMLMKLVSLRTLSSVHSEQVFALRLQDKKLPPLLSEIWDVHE
Procedure: as §1

Row | LXR alpha IP (nM) [1] | Emax [1] [%] | pEC50 [2] | Emax [2] [%] | pEC50 [1] | SMILES
1 | No IP | 4 | 7.34 | 69 |  | COc1cccc([C@@](O)(C(=O)N(C)CCCC2CCN(c3ccc(C(=O)N(C)C)c(Cl)n3)CC2)C(F)(F)F)c1 [Example 1-9, (R)-2-chloro-N,N-dimethyl-6-(4-(3-(3,3,3-trifluoro-2-hydroxy-2-(3-methoxyphenyl)-N-methylpropanamido)propyl)piperidin-1-yl)nicotinamide]
2 | No IP | 16 | 6.58 | 49 |  | CN(C)C(=O)c1ccc(N2CCC(CCCN(C)C(=O)[C@@](O)(c3cccc(C4CC4)c3)C(F)(F)F)CC2)nc1Cl [Example 1-34, (S)-2-chloro-6-(4-(3-(2-(3-cyclopropylphenyl)-3,3,3-trifluoro-2-hdyroxy-N-methylpropanamido)propyl)piperidin-1-yl)-N,N-dimethylnicotinamide]
3 |  | 22 | 6.33 | 46 | 5.51 | CN(C)C(=O)c1ccc(N2CCC3(CC2)C[C@H]3CCN(C)C(=O)[C@](O)(c2ccccc2)C(F)(F)F)cc1Cl [Example 7-25, 2-chloro-N,N-dimethyl-4-((S)-1-(2-((R)-3,3,3-trifluoro-2-hydroxy-N-methyl-2-phenylpropanamido)ethyl)-6-azaspiro[2.5]octan-6-yl)benzamide]
4 | No IP | 0 | 7.13 | 59 |  | CN(C)C(=O)c1ccc(N2CCC([C@H]3C[C@H]3CN(C)C(=O)[C@](O)(c3cccc(OC4CC4)c3)C(F)(F)F)CC2)nc1Cl [Example 15-8, 2-chloro-6-(4-((1R,2R)-2-(((R)-2-(3-cyclopropoxyphenyl)-3,3,3-trifluoro-2-hydroxy-N-methylpropanamido)methyl)cyclopropyl)piperidin-1-yl)-N,N-dimethylnicotinamide]
5 | No IP | 6 | 5.79 | 31 |  | CC(C)NC(=O)c1ccc(N2CCC3(CC2)C[C@H]3CCN(C)C(=O)[C@](O)(c2ccccc2)C(F)(F)F)cc1Cl [Example 7-28, 2-chloro-N-isopropyl-4-((S)-1-(2-((R)-3,3,3-trifluoro-2-hydroxy-N-methyl-2-phenylpropanamido)ethyl)-6-azaspiro[2.5]octan-6-yl)benzamide]
6 | No IP | 0 | 6.90 | 50 |  | COc1cccc([C@@](O)(C(=O)N(C)CCCC2CCN(c3ccc(C(=O)N4CCCC4)c(Cl)n3)CC2)C(F)(F)F)c1 [Example 2-6, (R)-N-(3-(1-(6-chloro-5-(pyrrolidine-1-carbonyl)pyridin-2-yl)piperidin-4-yl)propyl)-3,3,3-trifluoro-2-hydroxy-2-(3-methoxyphenyl)-N-methylpropanamide]
7 | No IP | 3 | 6.24 | 43 |  | COc1cccc([C@@](O)(C(=O)N(C)CC[C@@H]2CC23CCN(c2ccc(C(=O)N(C)C)c(Cl)c2)CC3)C(F)(F)F)c1 [Example 7-22, 2-chloro-N,N-dimethyl-4-((S)-1-(2-((R)-3,3,3-trifluoro-2-hydroxy-2-(3-methoxyphenyl)-N-methylpropanamido)ethyl)-6-azaspiro[2.5]octan-6-yl)benzamide]
8 | No IP | 10 | 6.79 | 67 |  | CC(C)N(C)C(=O)c1ccc(N2CCC(CCCN(C)C(=O)[C@](O)(c3ccccc3)C(F)(F)F)CC2)cc1Cl [Example 4-10, (R)-2-chloro-N-isopropyl-N-methyl-4-(4-(3-(3,3,3-trifluoro-2-hydroxy-N-methyl-2-phenylpropanamido)propyl)piperidin-1-yl)benzamide]
9 | No IP | 8 | 6.33 | 30 |  | CNC(=O)c1ccc(N2CCC3(CC2)CC(CN(C)C(=O)[C@](O)(c2cccc(OC)c2)C(F)(F)F)C3)nc1Cl [Example 14-2, 2-chloro-N-methyl-6-(2-(((R)-3,3,3-trifluoro-2-hydroxy-2-(3-methoxyphenyl)-N-methylpropanamido)methyl)-7-azaspiro[3.5]nonan-7-yl)nicotinamide]
10 | No IP | 12 | 6.53 | 54 |  | COc1cccc([C@@](O)(C(=O)N(C)CCCC2CCN(c3ccc(C(N)=O)c(Cl)n3)CC2)C(F)(F)F)c1 [Example 2-16, (R)-2-chloro-6-(4-(3-(3,3,3-trifluoro-2-hydroxy-2-(3-methoxyphenyl)-N-methylpropanamido)propyl)piperidin-1-yl)nicotinamide]
11 | No IP | 0 | 6.87 | 44 |  | CN(C)C(=O)c1ccc(N2CCC3(CC2)CC3CCCN(C)C(=O)[C@](O)(c2ccccc2)C(F)(F)F)cc1Cl (stereo partly drawn) [Example 7-33, 2-chloro-N,N-dimethyl-4-(1-(3-((R)-3,3,3-trifluoro-2-hydroxy-N-methyl-2-phenylpropanamido)propyl)-6-azaspiro[2.5]octan-6-yl)benzamide]
12 | No IP | 12 | 6.58 | 44 |  | CN(C)C(=O)c1ccc(N2CCC(F)(CCCN(C)C(=O)[C@](O)(c3ccccc3)C(F)(F)F)CC2)cc1Cl [Example 12-1, (R)-2-chloro-4-(4-fluoro-4-(3-(3,3,3-trifluoro-2-hydroxy-N-methyl-2-phenylpropanamido)propyl)piperidin-1-yl)-N,N-dimethylbenzamide]
13 |  | 23 | 6.73 | 75 | 5.22 | CN(C)C(=O)c1ccc(N2CCC([C@@H]3C[C@H]3CN(C)C(=O)[C@](O)(c3ccccc3)C(F)(F)F)CC2)nc1Cl [Example 15-15]
14 |  | 26 | 5.72 | 30 | 5.23 | COc1cccc([C@@](O)(C(=O)N(C)CCCC2CCN(c3cc(Cl)c(C(=O)N(C)C)cn3)CC2)C(F)(F)F)c1 [Example 2-21, (R)-4-chloro-N,N-dimethyl-6-(4-(3-(3,3,3-trifluoro-2-hydroxy-2-(3-methoxyphenyl)-N-methylpropanamido)propyl)piperidin-1-yl)nicotinamide]
15 | No IP | 5 | 5.73 | 32 |  | COc1cccc([C@@](O)(C(=O)N(C)CC[C@@H]2CC23CCN(c2ccc(C(=O)NC4CC4)c(Cl)c2)CC3)C(F)(F)F)c1 [Example 7-27, 2-chloro-N-cyclopropyl-4-((S)-1-(2-((R)-3,3,3-trifluoro-2-hydroxy-2-(3-methoxyphenyl)-N-methylpropanamido)ethyl)-6-azaspiro[2.5]octan-6-yl)benzamide]
16 | No IP | 9 | 7.14 | 71 |  | CN(C)C(=O)c1ccc(N2CCC(CCCN(C)C(=O)[C@]3(c4ccccc4)CCCO3)CC2)nc1Cl [Example 1-10, (R)-2-chloro-N,N-dimethyl-6-(4-(3-(N-methyl-2-phenyl-tetrahydrofuran-2-carboxamido)propyl)piperidin-1-yl)nicotinamide]
17 |  | 26 | 7.70 | 64 | 6.08 | CN(C)C(=O)c1ccc(N2CCC3(CC2)CC3CCN(C)C(=O)[C@](O)(c2cccc(OC(F)(F)F)c2)C(F)(F)F)cc1Cl (stereo in doubt) [Example 7-4, 2-chloro-N,N-dimethyl-4-((R)-1-(2-((R)-3,3,3-trifluoro-2-hydroxy-N-methyl-2-(3-(trifluoromethoxy)phenyl)propanamido)ethyl)-6-azaspiro[2.5]octan-6-yl) benzamide]
18 |  | 22 | 6.81 | 57 | 5.54 | COc1cccc([C@@](O)(C(=O)NC[C@H](C)CC2CCN(c3ccc(C(=O)N(C)C)c(Cl)n3)CC2)C(F)(F)F)c1 [Example 3-5]

Row | SMILES | LXR alpha IP (nM) [1] | Emax [1] [%] | pEC50 [2] | Emax [2] [%] | pEC50 [1]
19 | CCN(CC)C(=O)c1ccc(N2CCC(CCCN(C)C(=O)[C@](O)(c3cccc(OC)c3)C(F)(F)F)CC2)cc1Cl [Example 4-9, (R)-2-chloro-N,N-diethyl-4-(4-(3-(3,3,3-trifluoro-2-hydroxy-2-(3-methoxyphenyl)-N-methylpropanamido)propyl)piperidin-1-yl)benzamide] | No IP | 0 | 7.14 | 40 | 
